In US9119842B2, “Therapeutic meso-biliverdin IXα compositions and associated methods” (Utah State University, priority 2012, dated 2015):

Legend:
[1] = system: pancreata / islet cells of donor rats; experiment: Islet cell yields after treatment of donor pancreata; assay type: in vivo, rat (Lewis); details: for Islet yield: P<0.05 vs control; for Islet yield at 100 μM relative to 10 μM: 100 μM through the pancreatic duct
Experimental: MBV and BV IXα (obtained from Frontier Scientific, Inc., Logan Utah) (both at 1, 10, or 100 μM) were administered to IVC-dissected animals through the pancreatic duct at 37° C. Control animals received no treatment. Pancreata were removed from donor rats (Lewis, BW>300 g), incubated with University of Wisconsin solution and preserved using the two-layer method. See Ito et al., Improvement of canine islet yield by donor pancreas infusion with a p38MAPK inhibitor, Transplantation 86(2): 321-329 (2008). After 20 to 22 hours, islet cells were isolated using the 2-step digestion method after distention with collagenase and then purified by discontinuous Ficoll gradient centrifugation in a COBE 2991 cell processor. See Matsumoto et al., Improvement of pancreatic islet cell isolation for transplantation, Proc. (Bayl. Univ. Med. Cent.) 20(4): 357-362 (2007). Islet cells were counted microscopically and the numbers converted to IEQ (number of islets equivalent to 150 um in diameter.

[2] = biological target: T1, recombinant human liver BVR (Homo sapiens, UniProt P53004); experiment: BVR enzyme assay (Biliverdin Reduction Kit); assay type: biochemical; details: 10-fold dilution of 100 μg mL^−1, enzyme and NADPH, spectrophotometric 300-800 nm, up to 360 minutes
T1 construct: purchased Sigma-Aldrich (St. Louis, Mo.) CS1100; host or cells: Escherichia coli
T1 sequence (P53004 3-296): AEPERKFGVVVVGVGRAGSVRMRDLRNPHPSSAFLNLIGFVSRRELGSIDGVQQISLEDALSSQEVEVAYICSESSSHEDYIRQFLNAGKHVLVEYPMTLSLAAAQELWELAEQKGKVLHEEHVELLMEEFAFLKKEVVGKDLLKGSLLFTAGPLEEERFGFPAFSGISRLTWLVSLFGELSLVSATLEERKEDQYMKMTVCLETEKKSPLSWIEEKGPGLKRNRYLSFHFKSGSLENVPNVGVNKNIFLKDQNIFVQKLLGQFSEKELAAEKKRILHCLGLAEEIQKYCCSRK
Experimental: The Sigma-Aldrich (St. Louis, Mo.) Biliverdin Reduction Kit (catalog #CS1100) and method was used to determine biliverdin reductase (“BVR”) activities with MBV, BV IXα, or phycocyanobilin as substrates. The kit-supplied enzyme was human liver BVR expressed in a recombinant Escherichia coli strain. Before use, MBV, BV IXα, or phycocyanobilin, each at 100 μg mL^−1 in methanol, were diluted 10-fold in the kit-supplied assay buffer, mixed with enzyme and NADPH, and conversion to mesobilirubin IXα, bilirubin IXα, or phycocyanobilirubin was measured spectrophotometrically between 300 and 800 nm for up to 360 minutes.

[3] = system: Rat thoracic aortic vascular smooth muscle (A7r5) cells; experiment: Suppression of angiotensin II-induced inflammation in A7r5 cells (superoxide anion, NADH/NADPH oxidase); assay type: cell-based; details: angiotensin II-treated A7r5 cells; example in present tense
Experimental: Rat thoracic aortic vascular smooth muscle (A7r5) cells cultured in Dulbecco's modified Eagle's medium supplemented with 10% fetal calf serum and 2 mM glutamine are exposed to various concentrations of angiotensin II and MBV for various lengths of time before harvesting. The cells are scraped into balanced salt solution, washed twice by centrifugation, and finally suspended at a density of 2×10^6 cells per mL in the same solution containing 10 mM glucose and 1 mg per mL bovine serum albumin. Superoxide anion levels (of suspensions with 9×10^5 cells) are measured with a luminometer and a commercial luminogen-based detection kit (LumiMax, Agilent Technologies. Inc.).
Angiotensin II and MBV-treated cells suspended in phosphate-buffered saline (with protease inhibitors) are disrupted at ice temperature using a Dounce homogenizer. The cell extracts are fractionated into microsomal membrane and cytosol fractions by standard differential centrifugation procedures. Microsomes, containing plasma and mitochondrial membranes, are recovered as pellets after centrifugation at 29,100 g for 20 min at 4° C. NADH/NADPH oxidase activities of the microsomal fractions are measured with a luminometer and a commercial luminogen-based kit (LumiMax, Agilent Technologies. Inc.).

[4] = system: db/db and obese mice; experiment: Glucose tolerance in type 2 diabetes, db/db and obese mice; assay type: in vivo; details: example in present tense
Experimental: MBV (2, 20 and 100 mg kg^−1 daily) is orally administered to 5-week-old db/db and obese mice for 4 weeks. Control mice are given the same feed without added MBV. After 4 weeks, glucose tolerance and insulin tolerance tests are performed. See Ikeda et al., Biliverdin protects against the deterioration of glucose tolerance in db/db mice, Diabetologia 54:2183-2191 (2011). Insulin content is evaluated by immunostaining and ELISA. Oxidative stress markers (8-hydroxy-2′-deoxyguansosine and dihydroethidium staining) and expression of […] are evaluated in isolated islets.

[5] = system: HRT 18 colon cancer cells xenograft; experiment: Xenograft colonic tumor model; assay type: in vivo, BALB/c nude mice; details: 1, 10 and 100 mg/kg twice daily intraperitoneally vs PBS; example in present tense
Experimental: (§1) HRT-18 cells are seeded in 6-well plates in a concentration of 25×10^4 cells per well. After 24 hours, incubation, cells are treated with MBV IXα (1, 10, and 100 μM) or phosphate buffered saline (PBS) as a control. Cells are washed, detached with trypsin and resolved in 1 mL of growth media. 100 μL of […] are then analyzed for cell number, viability and cell size. In a xenograft colonic tumor model (see Ollinger et al., Bilirubin Inhibits Tumor Cell Growth via Activation of ERK, Cell Cycle 6:3078-3085 (2007)), 2.5×10^6 HRT 18 colon cancer cells are injected subcutaneously into the lower flank of BALB/c nude mice. At 14 days, MBV treatment is begun by injection of 1, 10 and 100 mg/kg body weight or PBS (controls) twice daily intraperitoneally and tumor diameters are measured daily using a caliper.

[6] = system: HRT-18 colon cancer cells; experiment: HRT-18 colon cancer cell proliferation in vitro; assay type: cell-based; details: 1, 10 and 100 μM vs PBS control; example in present tense
Experimental: as §1

[7] = system: transplanted islet cells in recipient rats; experiment: Treatment of donor pancreata followed by islet cell autotransplantation; assay type: in vivo, rat (Lewis)
Experimental: Pancreata removed from donor rats (Lewis, BW>300 g) were infused with University of Wisconsin solution containing MBV or BV IXα at 1, 10, or 100 μM through the pancreatic duct and preserved using the 2-layer method in Hank's balanced salt solution containing 5% autologous serum as described in Example 5. After 20 to 22 hours, islets were isolated and 3000 IEQ/kg were autotransplanted by infusion into the portal vein of the corresponding rat.

[8] = 1 μM through the pancreatic duct
[9] = 10 μM through the pancreatic duct
[10] = infusion of pancreata through the duct before preservation

| Molecule | Increase of islet yield over non-treated controls ([1]; 1 μM) [fold] | Islet yield [1, 8] [IEQ/g] | Increase of islet yield over non-treated controls ([1]; 10 μM) [fold] | Islet yield [1, 9] [IEQ/g] | Islet yield at 100 μM relative to 10 μM [1] | BVR activity with the compound as substrate (conversion to reduced product) [2] | Angiotensin II-induced inflammatory processes (NADH/NADPH oxidase activation, superoxide anion production) [3] | Development of hyperglycemia and glucose intolerance ([4]; 2, 20 and 100 mg kg^−1 daily orally, 4 weeks) | Levels of oxidative stress markers and NADPH oxidase activities ([4]; oral feeding 4 weeks, compared to controls) | Apoptosis and Bax expression in islets from db/db mice ([4]; oral feeding 4 weeks) | Insulin levels and Pdxl expression ([4]; oral feeding 4 weeks) | Xenograft tumor formation in vivo [5] | HRT-18 colonic cell proliferation in vitro [6] | Islet cell yields (IEQ values) assessed by laser scanning cytometry ([7]; MBV-treated donor pancreata vs untreated control pancreata) | Tumor necrosis factor α expression (real-time RT-PCR) ([7]; MBV-treated group vs controls) | Plasma C peptide levels after glucagon challenge ([7]; animals receiving MBV-treated islets vs islets from untreated control pancreata) | Adverse effect on islet function [7, 10] | Islet cell apoptosis [7, 10] | Glycemia of recipient rats ([7]; rats transplanted with MBV-treated islets vs untreated islets) |
| --- | --- | --- | --- | --- | --- | --- | --- | --- | --- | --- | --- | --- | --- | --- | --- | --- | --- | --- | --- |
| C=CC1=C(C)/C(=C\c2[nH]c(/C=C3N=C(/C=C4/NC(=O)C(C)=C4C=C)C(C)=C/3CCC(=O)O)c(CCC(=O)O)c2C)NC1=O [BV IXα, Biliverdin (“BV”) IXα, reference compound] | 1.04 | 1328±358 | 1.24 | 1616±451 | did not increase islet yields beyond those with 10 μM concentration | – | – | – | – | – | – | – | – | – | – | – | – | – | – |
| C/C=C1/C(=C\c2[nH]c(/C=C3N=C(/C=C4/NC(=O)C(CC)=C4C)C(C)=C/3CCC(=O)O)c(CCC(=O)O)c2C)NC(=O)C1C (stereo not shown) [phycocyanobilin, reference compound] | – | – | – | – | – | poor and relatively inactive catalytic substrate | – | – | – | – | – | – | – | – | – | – | – | – | – |
| meso-biliverdin IXα [MBV] | 1.87 | 1599±475 | 1.54 | 1318±804 | did not increase islet yields beyond those with 10 μM concentration | kinetics that resembled those for BV IXα conversion to bilirubin IXα | suppresses these inflammatory processes | at least partially prevents | lower and normal compared to those of controls | decreases | increases | reduces | reduces | higher | significantly lower | higher | no adverse effect on islet function | prevented islet cell apoptosis | more euglycemic |
